Results on 24 compounds are retold here after ChEMBL document CHEMBL1151052, “Semi-synthetic qualestatins: Squalene synthase inhibition and antifungal activity. The SAR of C6 and C7 modifications” (Bioorg Med Chem Lett, 1993).

For experiment [1], the system named is Aspergillus niger. Briefly: Tested for the whole cell antifungal activity against Aspergillus niger 48238 strain. It counts as functional.
Experiment [2] has as its system Cryptococcus neoformans. Put plainly: Antifungal activity against Cryptococcus neoformans 2867E strain. In kind it is functional.
The subject of experiment [3] is Candida albicans. Briefly: Antifungal activity against Candida albicans C316 strain. It counts as functional.
Experiment [4] deals with T1, Squalene synthase (Rattus norvegicus, UniProt Q02769).
T1 sequence (Q02769 whole entry): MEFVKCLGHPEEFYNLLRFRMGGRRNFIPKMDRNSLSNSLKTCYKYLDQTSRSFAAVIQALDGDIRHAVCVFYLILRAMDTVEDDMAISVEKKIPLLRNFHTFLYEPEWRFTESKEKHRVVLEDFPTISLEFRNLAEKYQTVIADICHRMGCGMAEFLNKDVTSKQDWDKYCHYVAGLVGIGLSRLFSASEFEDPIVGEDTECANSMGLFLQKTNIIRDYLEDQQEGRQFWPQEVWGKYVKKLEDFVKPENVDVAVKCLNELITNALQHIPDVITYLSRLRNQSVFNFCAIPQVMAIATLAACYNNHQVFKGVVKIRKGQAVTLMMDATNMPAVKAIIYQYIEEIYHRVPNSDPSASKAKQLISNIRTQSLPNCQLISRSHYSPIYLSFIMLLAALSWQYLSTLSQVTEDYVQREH
Put plainly: Inhibition of rat liver squalene synthase(SQS).

Molecules are shown by their SMILES. In brackets after ≈: the same amount, converted by molar mass.

Usually MIC stands for the smallest concentration in the dilution series that meets the test's criterion for growth inhibition. Low readings indicate inhibition by little substance, high ones a need for much substance. Turning to `C=C(CC[C@]12O[C@H](C(=O)O)[C@@](O)(C(=O)O)[C@](C(=O)O)(O1)[C@H](OC(=O)CCCC)[C@H]2O)[C@@H](OC(C)=O)[C@H](C)Cc1ccccc1`, the MIC in experiment [1], in experiment [2] and in experiment [3] was more than 125 µg/mL in each case.

Turning to `C=C(CC[C@]12O[C@H](C(=O)O)[C@@](O)(C(=O)O)[C@](C(=O)O)(O1)[C@H](OC(C)=O)[C@H]2OC(C)=O)[C@@H](OC(C)=O)[C@H](C)Cc1ccccc1`, the minimum inhibitory concentration (MIC) in experiment [1] and in experiment [3] was more than 125 µg/mL in each case.

As usually defined, the IC50 is the midpoint of a concentration-inhibition curve. Low values mean greater potency, high ones weaker potency. In the case of `C=C(CC[C@]12O[C@H](C(=O)O)[C@@](O)(C(=O)O)[C@](C(=O)O)(O1)[C@H](OC(=O)/C=C/[C@@H](C)C[C@@H](C)CC)[C@H]2OC(=O)OC)[C@@H](OC(C)=O)[C@H](C)Cc1ccccc1`, the figures for the minimal inhibitory concentration (MIC) in experiment [1], in experiment [2] and in experiment [3] were more than 125 µg/mL, more than 125 µg/mL and 125 µg/mL (≈ 167 µM), respectively. In addition, in experiment [4], the IC50 came out at 15 nM.

On to `C=C(CC[C@]12O[C@H](C(=O)O)[C@@](O)(C(=O)O)[C@](C(=O)O)(O1)[C@H](OC(=O)CCC)[C@H]2OC(=O)CCC)[C@@H](OC(C)=O)[C@H](C)Cc1ccccc1`, for which the MIC in experiment [1], in experiment [2] and in experiment [3] was more than 125 µg/mL throughout.

For `C=C(CC[C@]12O[C@H](C(=O)O)[C@@](O)(C(=O)O)[C@](C(=O)O)(O1)[C@H](OC(=O)C1CCCCC1)[C@H]2O)[C@@H](OC(C)=O)[C@H](C)Cc1ccccc1`, the minimal inhibitory concentration (MIC) in experiment [1] is more than 62 µg/mL; in experiment [2] it was 31 µg/mL (≈ 47.8 µM); in experiment [3], more than 62 µg/mL. Besides, the IC50 in experiment [4] worked out at 17 nM.

As to `C=C(CC[C@]12O[C@H](C(=O)O)[C@@](O)(C(=O)O)[C@](C(=O)O)(O1)[C@H](OC(=O)CC1CCCCC1)[C@H]2O)[C@@H](OC(C)=O)[C@H](C)Cc1ccccc1`, the results for the MIC in experiment [1], in experiment [2] and in experiment [3] were 62 µg/mL (≈ 93.6 µM), 2 µg/mL (≈ 3.02 µM) and 62 µg/mL (≈ 93.6 µM), respectively.

As for `C=C(CC[C@]12O[C@H](C(=O)O)[C@@](O)(C(=O)O)[C@](C(=O)O)(O1)[C@H](OC(=O)CCCCCCC)[C@H]2OC(=O)CCCCCCC)[C@@H](OC(C)=O)[C@H](C)Cc1ccccc1`, the MIC in experiment [1], in experiment [2] and in experiment [3] was more than 125 µg/mL in each case. Moreover, half-maximal inhibition in experiment [4] (IC50) required 280 nM.

In the case of `C=C(CC[C@]12O[C@H](C(=O)O)[C@@](O)(C(=O)O)[C@](C(=O)O)(O1)[C@H](OC(=O)OCCCCCCCCC)[C@H]2O)[C@@H](OC(C)=O)[C@H](C)Cc1ccccc1`, the minimum inhibitory concentration (MIC) was determined as 0.25 µg/mL (≈ 0.353 µM) in experiment [1], 0.06 µg/mL (≈ 0.0847 µM) in experiment [2] and 1 µg/mL (≈ 1.41 µM) in experiment [3]. Further, in experiment [4], the half-maximal inhibitory concentration (IC50) was determined as 7 nM.

For the compound `C=C(CC[C@]12O[C@H](C(=O)O)[C@@](O)(C(=O)O)[C@](C(=O)O)(O1)[C@H](O)[C@H]2OC(=O)CCCCCCCCC)[C@@H](OC(C)=O)[C@H](C)Cc1ccccc1`, the MIC in experiment [1], in experiment [2] and in experiment [3] was more than 125 µg/mL throughout. This compound also yielded a concentration for half-maximal inhibition (IC50) in experiment [4] of 303 nM.

On to `C=C(CC[C@]12O[C@H](C(=O)O)[C@@](O)(C(=O)O)[C@](C(=O)O)(O1)[C@H](O)[C@H]2OC(=O)CCCCCCC)[C@@H](OC(C)=O)[C@H](C)Cc1ccccc1`, for which the MIC in experiment [1], in experiment [2] and in experiment [3] was more than 125 µg/mL throughout. The compound further registered an IC50 in experiment [4] of more than 500 nM.

On to `C=C(CC[C@]12O[C@H](C(=O)O)[C@@](O)(C(=O)O)[C@](C(=O)O)(O1)[C@H](OC(=O)CCCCCCc1ccccc1)[C@H]2O)[C@@H](OC(C)=O)[C@H](C)Cc1ccccc1`, for which the minimal inhibitory concentration (MIC) in experiment [1] worked out at 62 µg/mL (≈ 85.3 µM); in experiment [2], 2 µg/mL (≈ 2.75 µM); in experiment [3] it was 125 µg/mL (≈ 172 µM). In experiment [4], this compound displayed an IC50 of 9 nM.

`C=C(CC[C@]12O[C@H](C(=O)O)[C@@](O)(C(=O)O)[C@](C(=O)O)(O1)[C@H](O)[C@H]2O)[C@@H](OC(C)=O)[C@H](C)Cc1ccccc1`: the MIC in experiment [1], in experiment [2] and in experiment [3] was more than 125 µg/mL each time.

Turning to `C=C(CC[C@]12O[C@H](C(=O)O)[C@@](O)(C(=O)O)[C@](C(=O)O)(O1)[C@H](OC(=O)CCCCCCC)[C@H]2O)[C@@H](OC(C)=O)[C@H](C)Cc1ccccc1`, the MIC in experiment [1] was determined as 8 µg/mL (≈ 12 µM); in experiment [2], 1 µg/mL (≈ 1.5 µM); in experiment [3] it was 31 µg/mL (≈ 46.6 µM). In experiment [4], this compound returned a concentration for half-maximal inhibition (IC50) of 3 nM.

In the case of `C=C(CC[C@]12O[C@H](C(=O)O)[C@@](O)(C(=O)O)[C@](C(=O)O)(O1)[C@H](OC(=O)c1ccccc1)[C@H]2O)[C@@H](OC(C)=O)[C@H](C)Cc1ccccc1`, the MIC in experiment [1], in experiment [2] and in experiment [3] was more than 125 µg/mL throughout. In experiment [4], the IC50 turned out to be 8 nM.

`C=C(CC[C@]12O[C@H](C(=O)O)[C@@](O)(C(=O)O)[C@](C(=O)O)(O1)[C@H](OC(=O)CCCCCCCCC)[C@H]2O)[C@@H](OC(C)=O)[C@H](C)Cc1ccccc1`: the MIC was found to be 2 µg/mL (≈ 2.89 µM) in experiment [1], 2 µg/mL (≈ 2.89 µM) in experiment [2] and 16 µg/mL (≈ 23.1 µM) in experiment [3]. Also, half-maximal inhibition in experiment [4] (IC50) was put at 8 nM.

On to `C=C(CC[C@]12O[C@H](C(=O)O)[C@@](O)(C(=O)O)[C@](C(=O)O)(O1)[C@H](OC(=O)OC)[C@H]2O)[C@@H](OC(C)=O)[C@H](C)Cc1ccccc1`, for which the MIC in experiment [1], in experiment [2] and in experiment [3] was more than 125 µg/mL throughout. This compound displayed a half-inhibitory concentration (IC50) in experiment [4] of 3 nM.

`C=C(CC[C@]12O[C@H](C(=O)O)[C@@](O)(C(=O)O)[C@](C(=O)O)(O1)[C@H](OC(=O)OCCCC)[C@H]2O)[C@@H](OC(C)=O)[C@H](C)Cc1ccccc1`: the MIC in experiment [1], in experiment [2] and in experiment [3] was more than 125 µg/mL throughout. In addition, 4 nM corresponded to half-maximal inhibition in experiment [4] (IC50).

Consider `C=C(CC[C@]12O[C@H](C(=O)O)[C@@](O)(C(=O)O)[C@](C(=O)O)(O1)[C@H](OC(=O)/C=C/[C@@H](C)C[C@@H](C)CC)[C@H]2O)[C@@H](OC(C)=O)[C@H](C)Cc1ccccc1` [ZARAGOZIC ACIDS A], for which the MIC in experiment [1] was 16 µg/mL (≈ 23.2 µM); in experiment [2], 0.5 µg/mL (≈ 0.724 µM); in experiment [3], 8 µg/mL (≈ 11.6 µM).

For `C=C(CC[C@]12O[C@H](C(=O)O)[C@@](O)(C(=O)O)[C@](C(=O)O)(O1)[C@H](OC(C)=O)[C@H]2O)[C@@H](OC(C)=O)[C@H](C)Cc1ccccc1`, the minimal inhibitory concentration (MIC) in experiment [1], in experiment [2] and in experiment [3] was more than 125 µg/mL each time. For the same compound, the concentration for half-maximal inhibition (IC50) in experiment [4] was 2 nM.

In the case of `C=C(CC[C@]12O[C@H](C(=O)O)[C@@](O)(C(=O)O)[C@](C(=O)O)(O1)[C@H](O)[C@H]2OC(C)=O)[C@@H](OC(C)=O)[C@H](C)Cc1ccccc1`, the MIC in experiment [1] and in experiment [3] was more than 125 µg/mL in each case.

For the compound `C=C(CC[C@]12O[C@H](C(=O)O)[C@@](O)(C(=O)O)[C@](C(=O)O)(O1)[C@H](OC(=O)/C=C/[C@@H](C)C[C@@H](C)CC)[C@H]2OC(C)=O)[C@@H](OC(C)=O)[C@H](C)Cc1ccccc1`, the minimal inhibitory concentration (MIC) in experiment [1] is 8 µg/mL (≈ 10.9 µM); in experiment [2], 1 µg/mL (≈ 1.36 µM); in experiment [3] it was more than 125 µg/mL. The compound further yielded an IC50 in experiment [4] of 10 nM.

For the compound `C=C(CC[C@]12O[C@H](C(=O)O)[C@@](O)(C(=O)O)[C@](C(=O)O)(O1)[C@H](OC(=O)/C=C/c1ccccc1)[C@H]2O)[C@@H](OC(C)=O)[C@H](C)Cc1ccccc1`, the minimum inhibitory concentration (MIC) in experiment [1] is more than 125 µg/mL; in experiment [2], 31 µg/mL (≈ 46.4 µM); in experiment [3] it was more than 125 µg/mL. The same compound yielded a half-maximal inhibitory concentration (IC50) in experiment [4] of 4 nM.

Regarding `C=C(CC[C@]12O[C@H](C(=O)O)[C@@](O)(C(=O)O)[C@](C(=O)O)(O1)[C@H](O)[C@H]2OC(=O)OC)[C@@H](OC(C)=O)[C@H](C)Cc1ccccc1`, the MIC in experiment [1], in experiment [2] and in experiment [3] was more than 125 µg/mL in each case. Further, inhibition in experiment [4] was half-maximal at 380 nM (IC50).

Consider `C=C(CC[C@]12O[C@H](C(=O)O)[C@@](O)(C(=O)O)[C@](C(=O)O)(O1)[C@H](OC(=O)/C=C/[C@@H](C)C[C@@H](C)CC)[C@H]2OC(=O)CCCCCCC)[C@@H](OC(C)=O)[C@H](C)Cc1ccccc1`, for which the MIC in experiment [1], in experiment [2] and in experiment [3] was more than 32 µg/mL in each case.
